# According to US10967078B2, “Radiolabelled mGluR2 PET ligands” (Janssen Pharmaceutica NV, priority 2014, dated 2021):
# Tests used:
# mGlu3 = mGlu3 (Homo sapiens, UniProt Q14832); assay: Selectivity for mGluR2 versus mGluR3; type: biochemical
# mGluR2 [1] = molecular target: T1, mGluR2 (Mus musculus, UniProt Q14BI2); assay: In vitro autoradiography binding on mGluR2 KO and WT mouse brain sections; conditions: for Cortex WT (TB)/cortex WT (block Co. No. 1) / spec binding, cortex WT: WT mouse cortex; for Cortex WT (TB)/cortex WT (block Co. No. 1) / spec binding, cortex WT / Striatum WT (TB)/striatum WT (block Co. No. 1) / spec binding, striatum WT: block with 10 μM Co. No. 1; for Striatum WT (TB)/striatum WT (block Co. No. 1) / spec binding, striatum WT: WT mouse striatum; for difference in tracer binding to WT and mGluR2 KO mouse brain sections: in words; for Cortex WT (TB)/Cortex KO (TB) / Striatum WT (TB)/Striatum KO (TB): total binding ratio, WT versus mGluR2 KO mouse brain sections
# T1 construct: horizontal sections of mGluR2 KO and WT mouse brain and of normal female Wistar rat brain; from tissue; host or cells: mouse brain sections (WT and mGluR2 KO), 20 µm
# Protocol: (§1) In vitro autoradiography studies were performed on horizontal sections of mGluR2 KO and WT mouse brain and of normal female Wistar rat brain (20 μm). The sections were preincubated in 50 mM Tris-HCl (MgCl2 2 mM, CaCl2 2 mM; pH 7.0) for 10 min (two times) at room temperature and dried. Next, the brain sections were incubated with tracer [^11C]-2, [^11C]-5, [^11C]-4, [^11C]-1 or [^18F]-3 diluted in the same Tris-HCl buffer as used for the preincubation additionally containing 0.1% BSA or with this tracer solution in the presence of 10 μM Co. No. 2 or Co. No. 1. The mouse brain sections were incubated with 17 kBq of carbon-11 labeled tracer and 1.7 kBq of fluorine-18 labeled tracer. For the rat brain sections this was 44 kBq of carbon-11 labeled tracer and 0.44 kBq of fluorine-18 labeled tracer. After 30 min of incubation, the brain sections were washed three times for 5 min in ice-cold Tris-HCl 50 mM ((MgCl2 2 mM, CaCl2 2 mM; pH 7.0+0.1% BSA buffer). After a quick dip in purified ice-cold water, the slides were dried. Autoradiograms were obtained by exposing the slides overnight to a high-performance phosphor storage screen (super-resolution screen; Perkin Elmer, Waltham, USA). The screens were read using a Cyclone Plus system (Perkin Elmer) and analysed using Optiquant software (Perkin Elmer). The radioactivity concentration in the autoradiograms was expressed in digital light units (DLU)/mm^2.
# (§2) To obtain additional information on the specificity of the tracer binding to mGluR2, in vitro autoradiography binding studies were performed on mGluR2 KO and WT mouse brain sections and on normal rat brain sections in presence or absence of a high concentration of mGluR2 NAM compounds (Co. No. 1 or Co. No. 2).
# [2] = Biodistribution studies in normal female Wistar rats; type: in vivo, rat; conditions: for % ID blood / SUV blood / % ID bone / SUV bone / % ID carcass / % ID cerebellum / SUV cerebellum / SUV cerebrum + cerebellum / % ID cerebrum total / % ID cortex / SUV cortex / % ID heart / % ID hippocampus / SUV hippocampus / % ID intestines / % ID kidneys / % ID liver / % ID lungs / % ID muscle / SUV muscle / % ID rest of cerebrum / SUV rest of cerebrum / % ID spleen + pancreas / % ID stomach / % ID striatum / SUV striatum / % ID urine / SUV whole cerebrum: mean n=3; for SUV cerebrum + cerebellum / Total brain uptake: cerebrum + cerebellum; for Total brain uptake: n=3
# Protocol: High-performance liquid chromatography (HPLC) analysis was performed on a LaChrom Elite® HPLC system (Hitachi, Armstadt, Germany) connected to a UV spectrometer. For the analysis of radiolabeled compounds, the HPLC eluate, after passage through the UV detector, was led over a shielded 3-inch NaI(Tl) scintillation detector connected to a single channel analyser (Gabi box, Raytest, Straubenhardt, Germany). The output signal was recorded and analysed using a GINA Star data acquisition system (Raytest, Straubenhardt, Germany). Radioactivity in samples of biodistribution studies was quantified using an automated gamma counter equipped with a 3-inch NaI(Tl) well crystal coupled to a multichannel analyser (Wallac 2480 Wizard, Wallac, Turku, Finland). Results were corrected for background radiation, physical decay and counter dead time. Animals were housed in individually ventilated cages in a thermoregulated (˜22° C.), humidity-controlled facility under a 12 h/12 h light/dark cycle with access to food and water ad libitum. All animal experiments were conducted according to the Belgian code of practice for the care and use of animals, after approval from the local University Ethics Committee for Animals.
# Biodistribution studies of [^11C]-2 and [^11C]-1 were carried out in healthy female Wister rats (body weight 185-220 g) at 2 min, 30 min and 60 min post injection (p.i.) (n=3/time point). Rats were injected with about 18 MBq of the tracer via a tail vein under anesthesia (2.5% isoflurane in O2 at 1 L/min flow rate) and sacrificed by decapitation at the above specified time points. Blood and major organs were collected in tared tubes and weighed. The radioactivity in blood, organs and other body parts was measured using an automated gamma counter. For calculation of total blood radioactivity, blood mass was assumed to be 7% of the body mass. For calculation of total muscle and total bone radioactivity, muscle and bone mass were assumed to be 40% and 12% of the body mass, respectively.
# mGluR2 [3] = molecular target: T2, mGluR2 (Rattus norvegicus, UniProt P31421); assay: In vitro autoradiography binding on normal female Wistar rat brain sections; conditions: in words
# T2 construct: horizontal sections of mGluR2 KO and WT mouse brain and of normal female Wistar rat brain; from tissue; host or cells: normal female Wistar rat brain sections, 20 µm
# Protocol: as §1, §2
# mGlu4 = mGlu4 (Homo sapiens, UniProt Q14833); assay: Selectivity for mGluR2 versus mGluR4; type: biochemical
# mGlu8 = mGlu8 (Homo sapiens, UniProt O00222); assay: Selectivity for mGluR2 versus mGluR8; type: biochemical
# mGlu8, sequence (O00222 34-908): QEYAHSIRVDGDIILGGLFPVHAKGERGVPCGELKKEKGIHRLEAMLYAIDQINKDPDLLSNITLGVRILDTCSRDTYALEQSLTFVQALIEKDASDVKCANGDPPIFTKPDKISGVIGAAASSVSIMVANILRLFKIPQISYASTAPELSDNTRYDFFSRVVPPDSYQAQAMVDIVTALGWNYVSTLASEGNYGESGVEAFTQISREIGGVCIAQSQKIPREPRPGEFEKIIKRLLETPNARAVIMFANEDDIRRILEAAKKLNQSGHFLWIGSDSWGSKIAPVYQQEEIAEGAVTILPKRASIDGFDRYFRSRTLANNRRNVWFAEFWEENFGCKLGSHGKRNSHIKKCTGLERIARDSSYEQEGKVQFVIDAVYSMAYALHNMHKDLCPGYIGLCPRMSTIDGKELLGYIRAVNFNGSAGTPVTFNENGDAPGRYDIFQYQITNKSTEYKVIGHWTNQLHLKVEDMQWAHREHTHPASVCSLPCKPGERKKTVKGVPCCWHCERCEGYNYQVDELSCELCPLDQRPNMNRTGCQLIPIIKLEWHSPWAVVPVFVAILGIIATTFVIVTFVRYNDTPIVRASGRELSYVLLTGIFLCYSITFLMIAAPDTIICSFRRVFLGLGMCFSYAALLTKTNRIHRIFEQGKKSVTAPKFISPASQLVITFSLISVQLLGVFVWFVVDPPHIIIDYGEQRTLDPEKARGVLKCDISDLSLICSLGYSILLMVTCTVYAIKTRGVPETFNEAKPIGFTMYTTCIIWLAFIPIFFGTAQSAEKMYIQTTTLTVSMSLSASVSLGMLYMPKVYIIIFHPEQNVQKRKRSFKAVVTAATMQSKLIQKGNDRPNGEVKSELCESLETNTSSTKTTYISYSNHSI
# T1 sequence (Q14BI2 19-872): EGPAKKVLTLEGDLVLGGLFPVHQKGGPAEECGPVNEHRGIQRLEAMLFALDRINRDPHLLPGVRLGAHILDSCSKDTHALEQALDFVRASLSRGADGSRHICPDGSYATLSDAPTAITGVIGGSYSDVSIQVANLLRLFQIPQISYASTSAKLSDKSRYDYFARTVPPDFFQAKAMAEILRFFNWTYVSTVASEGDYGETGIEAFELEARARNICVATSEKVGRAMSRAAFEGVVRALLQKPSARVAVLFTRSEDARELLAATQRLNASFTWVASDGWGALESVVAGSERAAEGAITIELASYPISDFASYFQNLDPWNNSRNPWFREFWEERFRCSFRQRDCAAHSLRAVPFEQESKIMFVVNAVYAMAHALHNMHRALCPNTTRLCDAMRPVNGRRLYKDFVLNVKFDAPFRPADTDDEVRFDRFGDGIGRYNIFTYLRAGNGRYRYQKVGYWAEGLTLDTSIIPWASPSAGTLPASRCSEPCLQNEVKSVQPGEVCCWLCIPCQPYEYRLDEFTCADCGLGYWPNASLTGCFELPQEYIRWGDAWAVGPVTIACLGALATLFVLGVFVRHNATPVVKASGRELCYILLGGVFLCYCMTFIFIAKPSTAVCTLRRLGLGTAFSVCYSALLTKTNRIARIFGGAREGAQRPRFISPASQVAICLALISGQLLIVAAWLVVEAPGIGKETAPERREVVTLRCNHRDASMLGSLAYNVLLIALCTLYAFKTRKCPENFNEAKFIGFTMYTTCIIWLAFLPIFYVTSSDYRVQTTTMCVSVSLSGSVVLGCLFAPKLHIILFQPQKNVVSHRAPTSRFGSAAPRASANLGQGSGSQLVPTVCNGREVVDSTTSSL
# mGlu3, sequence (Q14832 23-879): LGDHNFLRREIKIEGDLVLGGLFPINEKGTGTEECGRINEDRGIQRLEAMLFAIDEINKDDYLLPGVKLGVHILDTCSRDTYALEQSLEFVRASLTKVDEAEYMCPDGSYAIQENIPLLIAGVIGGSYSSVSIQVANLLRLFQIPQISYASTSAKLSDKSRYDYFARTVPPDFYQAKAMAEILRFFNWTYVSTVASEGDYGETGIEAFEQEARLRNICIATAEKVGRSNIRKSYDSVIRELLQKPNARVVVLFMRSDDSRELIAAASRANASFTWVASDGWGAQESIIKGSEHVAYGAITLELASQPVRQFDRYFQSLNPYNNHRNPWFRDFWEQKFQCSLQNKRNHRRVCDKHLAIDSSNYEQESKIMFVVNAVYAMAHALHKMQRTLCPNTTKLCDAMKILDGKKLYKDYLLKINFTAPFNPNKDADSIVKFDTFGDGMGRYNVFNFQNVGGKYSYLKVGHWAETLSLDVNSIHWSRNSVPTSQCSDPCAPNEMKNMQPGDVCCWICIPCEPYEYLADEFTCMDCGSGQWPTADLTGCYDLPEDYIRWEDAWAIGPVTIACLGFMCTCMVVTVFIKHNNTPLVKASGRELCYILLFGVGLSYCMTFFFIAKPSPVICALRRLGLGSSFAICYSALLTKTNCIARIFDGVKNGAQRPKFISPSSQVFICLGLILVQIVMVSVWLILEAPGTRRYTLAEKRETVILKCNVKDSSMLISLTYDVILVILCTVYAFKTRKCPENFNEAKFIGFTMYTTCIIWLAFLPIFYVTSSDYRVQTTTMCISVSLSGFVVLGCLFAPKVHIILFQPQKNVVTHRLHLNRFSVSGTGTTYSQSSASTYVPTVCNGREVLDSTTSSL
# mGlu4, sequence (Q14833 33-912): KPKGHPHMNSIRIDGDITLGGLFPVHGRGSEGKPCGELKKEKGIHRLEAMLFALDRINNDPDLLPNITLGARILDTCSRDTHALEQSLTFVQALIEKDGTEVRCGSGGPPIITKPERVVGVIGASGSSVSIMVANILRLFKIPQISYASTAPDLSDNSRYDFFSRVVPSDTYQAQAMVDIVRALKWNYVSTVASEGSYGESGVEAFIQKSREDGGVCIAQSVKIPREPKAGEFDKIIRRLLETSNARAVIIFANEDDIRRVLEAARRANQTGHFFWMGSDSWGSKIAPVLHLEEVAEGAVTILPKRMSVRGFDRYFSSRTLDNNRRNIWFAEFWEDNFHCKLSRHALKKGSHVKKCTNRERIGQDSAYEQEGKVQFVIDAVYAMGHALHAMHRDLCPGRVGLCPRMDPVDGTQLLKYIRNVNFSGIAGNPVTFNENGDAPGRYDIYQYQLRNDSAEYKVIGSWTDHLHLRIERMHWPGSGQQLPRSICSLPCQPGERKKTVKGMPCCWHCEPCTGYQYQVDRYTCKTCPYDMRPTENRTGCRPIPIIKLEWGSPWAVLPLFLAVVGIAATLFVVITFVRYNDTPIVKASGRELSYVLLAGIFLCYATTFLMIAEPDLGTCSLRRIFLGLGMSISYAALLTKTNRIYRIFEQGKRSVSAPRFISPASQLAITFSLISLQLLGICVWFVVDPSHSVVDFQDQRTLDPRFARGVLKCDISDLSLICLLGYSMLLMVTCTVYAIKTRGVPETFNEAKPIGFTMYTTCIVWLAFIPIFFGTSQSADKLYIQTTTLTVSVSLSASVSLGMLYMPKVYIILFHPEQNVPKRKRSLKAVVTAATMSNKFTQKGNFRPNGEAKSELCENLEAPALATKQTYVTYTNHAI
# T2 sequence (P31421 19-872): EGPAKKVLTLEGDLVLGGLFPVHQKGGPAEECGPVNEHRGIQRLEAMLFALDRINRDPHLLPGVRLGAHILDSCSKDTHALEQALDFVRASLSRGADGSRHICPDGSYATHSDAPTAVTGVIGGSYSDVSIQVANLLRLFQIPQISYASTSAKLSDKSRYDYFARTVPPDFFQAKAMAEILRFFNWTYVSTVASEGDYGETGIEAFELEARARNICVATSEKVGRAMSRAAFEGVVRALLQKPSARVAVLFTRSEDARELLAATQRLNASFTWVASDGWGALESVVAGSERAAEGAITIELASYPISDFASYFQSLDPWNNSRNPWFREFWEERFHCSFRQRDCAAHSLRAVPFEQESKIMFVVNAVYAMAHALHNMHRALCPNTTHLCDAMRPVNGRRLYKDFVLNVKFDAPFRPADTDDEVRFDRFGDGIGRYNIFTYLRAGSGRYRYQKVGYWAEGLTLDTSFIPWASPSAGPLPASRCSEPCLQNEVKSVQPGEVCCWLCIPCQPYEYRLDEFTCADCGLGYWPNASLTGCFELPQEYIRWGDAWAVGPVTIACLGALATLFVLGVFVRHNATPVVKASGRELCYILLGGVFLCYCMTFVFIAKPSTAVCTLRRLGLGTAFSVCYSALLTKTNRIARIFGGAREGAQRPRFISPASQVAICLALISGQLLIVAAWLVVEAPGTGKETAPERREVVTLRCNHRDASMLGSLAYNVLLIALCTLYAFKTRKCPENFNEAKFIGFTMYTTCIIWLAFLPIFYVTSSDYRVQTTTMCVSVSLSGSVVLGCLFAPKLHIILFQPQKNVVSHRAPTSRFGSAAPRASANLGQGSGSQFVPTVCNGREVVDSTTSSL
structure (smiles),measurement,setting,value
"CNc1cc(-c2cnn3c2C(=O)N(c2ccc(C(F)(F)F)c(OC)n2)C[C@@H]3C)ccn1 [Co. No. 5, (7S)-5-[6-Methoxy-5-(trifluoromethyl)-2-pyridyl]-7-methyl-3-[2-(methylamino)-4-pyridyl]-6,7-dihydropyrazolo[1,5-a]pyrazin-4-one]",melting point,,125.82 °C
same,Selectivity over mGlu3,mGlu3,234.4
C[C@H]1CN(c2ccc(S(F)(F)(F)(F)F)cc2)C(=O)c2c(-c3ccnc(N[11CH3])c3)cnn21 [[^11C]-4],Cortex WT (TB)/cortex WT (block Co. No. 1),mGluR2 [1],~3.8
same,"spec binding, cortex WT",mGluR2 [1],(~74% spec
same,Striatum WT (TB)/striatum WT (block Co. No. 1),mGluR2 [1],~2.6
same,"spec binding, striatum WT",mGluR2 [1],(~62% spec
same,difference in tracer binding to WT and mGluR2 KO mouse brain sections,mGluR2 [1],less pronounced
same,Cortex WT (TB)/Cortex KO (TB),mGluR2 [1],~2.6
same,Striatum WT (TB)/Striatum KO (TB),mGluR2 [1],~2.2
C[C@H]1CN(c2ccc(C(F)(F)F)cc2)C(=O)c2c(-c3ccnc([11CH3])c3)cnn21 [[^11C]-1],Cortex WT (TB)/cortex WT (block Co. No. 1),mGluR2 [1],~21.5
same,"spec binding, cortex WT",mGluR2 [1],(~95% spec
same,Striatum WT (TB)/striatum WT (block Co. No. 1),mGluR2 [1],~11.8
same,"spec binding, striatum WT",mGluR2 [1],(~92% specific
same,difference in tracer binding to WT and mGluR2 KO mouse brain sections,mGluR2 [1],significant difference
same,Cortex WT (TB)/Cortex KO (TB),mGluR2 [1],~7.1
same,Striatum WT (TB)/Striatum KO (TB),mGluR2 [1],~3.8
same,2 min - to- 30 min wash-out ratio,[2]; blood,1.86
same,% ID blood,"[2]; blood, 2 min p.i.",6.3 % ID
same,SUV blood,"[2]; blood, 2 min p.i.",0.90 SUV
same,% ID blood,"[2]; blood, 30 min p.i.",3.4 % ID
same,SUV blood,"[2]; blood, 30 min p.i.",0.49 SUV
same,2 min - to- 30 min wash-out ratio,[2]; bone,2.11
same,% ID bone,"[2]; bone, 2 min p.i.",5.7 % ID
same,SUV bone,"[2]; bone, 2 min p.i.",0.48 SUV
same,% ID bone,"[2]; bone, 30 min p.i.",2.7 % ID
same,SUV bone,"[2]; bone, 30 min p.i.",0.23 SUV
same,% ID carcass,[2]; 2 min p.i.,43.4 % ID
same,% ID carcass,[2]; 30 min p.i.,61.5 % ID
same,2 min - to- 30 min wash-out ratio,[2]; cerebellum,2.90
same,% ID cerebellum,"[2]; cerebellum, 2 min p.i.",0.340 % ID
same,SUV cerebellum,"[2]; cerebellum, 2 min p.i.",2.60 SUV
same,% ID cerebellum,"[2]; cerebellum, 30 min p.i.",0.120 % ID
same,SUV cerebellum,"[2]; cerebellum, 30 min p.i.",0.90 SUV
same,SUV cerebrum + cerebellum,[2]; 2 min p.i.,2.82 SUV
same,Total brain uptake,[2]; 2 min p.i.,2.0 % ID
same,Total brain uptake,"[2]; 2 min p.i., listed as [^11C-1]",2.01 ± 0.24 % ID
same,SUV cerebrum + cerebellum,[2]; 30 min p.i.,0.95 SUV
same,Total brain uptake,[2]; 30 min p.i.,0.69 ± 0.05 % ID
same,% ID cerebrum total,[2]; 2 min p.i.,1.643 % ID
same,% ID cerebrum total,[2]; 30 min p.i.,0.567 % ID
same,2 min - to- 30 min wash-out ratio,[2]; cortex,3.22
same,% ID cortex,"[2]; cortex, 2 min p.i.",0.131 % ID
same,SUV cortex,"[2]; cortex, 2 min p.i.",3.51 SUV
same,% ID cortex,"[2]; cortex, 30 min p.i.",0.039 % ID
same,SUV cortex,"[2]; cortex, 30 min p.i.",1.09 SUV
same,% ID heart,[2]; 2 min p.i.,0.6 % ID
same,% ID heart,[2]; 30 min p.i.,0.5 % ID
same,2 min - to- 30 min wash-out ratio,[2]; hippocampus,2.76
same,% ID hippocampus,"[2]; hippocampus, 2 min p.i.",0.083 % ID
same,SUV hippocampus,"[2]; hippocampus, 2 min p.i.",2.41 SUV
same,% ID hippocampus,"[2]; hippocampus, 30 min p.i.",0.031 % ID
same,SUV hippocampus,"[2]; hippocampus, 30 min p.i.",0.87 SUV
same,% ID intestines,[2]; 2 min p.i.,10.1 % ID
same,% ID intestines,[2]; 30 min p.i.,11.1 % ID
same,% ID kidneys,[2]; 2 min p.i.,2.9 % ID
same,% ID kidneys,[2]; 30 min p.i.,1.6 % ID
same,% ID liver,[2]; 2 min p.i.,31.2 % ID
same,% ID liver,[2]; 30 min p.i.,14.2 % ID
same,% ID lungs,[2]; 2 min p.i.,2.1 % ID
same,% ID lungs,[2]; 30 min p.i.,0.9 % ID
same,2 min - to- 30 min wash-out ratio,[2]; muscle,0.61
same,% ID muscle,"[2]; muscle, 2 min p.i.",15.1 % ID
same,SUV muscle,"[2]; muscle, 2 min p.i.",0.38 SUV
same,% ID muscle,"[2]; muscle, 30 min p.i.",24.9 % ID
same,SUV muscle,"[2]; muscle, 30 min p.i.",0.62 SUV
same,2 min - to- 30 min wash-out ratio,[2]; rest of cerebrum,3.00
same,% ID rest of cerebrum,"[2]; rest of cerebrum, 2 min p.i.",1.286 % ID
same,SUV rest of cerebrum,"[2]; rest of cerebrum, 2 min p.i.",2.83 SUV
same,% ID rest of cerebrum,"[2]; rest of cerebrum, 30 min p.i.",0.445 % ID
same,SUV rest of cerebrum,"[2]; rest of cerebrum, 30 min p.i.",0.94 SUV
same,% ID spleen + pancreas,[2]; 2 min p.i.,1.9 % ID
same,% ID spleen + pancreas,[2]; 30 min p.i.,1.2 % ID
same,% ID stomach,[2]; 2 min p.i.,2.8 % ID
same,% ID stomach,[2]; 30 min p.i.,6.4 % ID
same,2 min - to- 30 min wash-out ratio,[2]; striatum,2.68
same,% ID striatum,"[2]; striatum, 2 min p.i.",0.143 % ID
same,SUV striatum,"[2]; striatum, 2 min p.i.",2.58 SUV
same,% ID striatum,"[2]; striatum, 30 min p.i.",0.052 % ID
same,SUV striatum,"[2]; striatum, 30 min p.i.",0.97 SUV
same,% ID urine,[2]; 2 min p.i.,0.1 % ID
same,% ID urine,[2]; 30 min p.i.,0.1 % ID
same,2 min - to- 30 min wash-out ratio,[2]; whole cerebrum,2.98
same,SUV whole cerebrum,"[2]; whole cerebrum, 2 min p.i.",2.83 SUV
same,SUV whole cerebrum,"[2]; whole cerebrum, 30 min p.i.",0.95 SUV
same,total binding to normal rat brain sections,mGluR2 [3],less pronounced
"CNc1cc(-c2cnn3c2C(=O)N(c2ccc(C(F)(F)F)cc2)C[C@@H]3C)ccn1 [Co. No. 2, (7S)-7-Methyl-3-[2-(methylamino)-4-pyridyl]-5-[4-(trifluoromethyl)phenyl]-6,7-dihydropyrazolo[1,5-a]pyrazin-4-one]",Selectivity over mGlu4,mGlu4,8709.6
same,Selectivity over mGlu8,mGlu8,1737.8
same,Selectivity over mGlu3,mGlu3,44.7
COc1nc(N2C[C@H](C)n3ncc(-c4ccnc(N[11CH3])c4)c3C2=O)ccc1C(F)(F)F [[^11C]-5],Cortex WT (TB)/cortex WT (block Co. No. 1),mGluR2 [1],~2.4
same,"spec binding, cortex WT",mGluR2 [1],(~58% spec
same,Striatum WT (TB)/striatum WT (block Co. No. 1),mGluR2 [1],~1.9
same,"spec binding, striatum WT",mGluR2 [1],(~47% spec
same,difference in tracer binding to WT and mGluR2 KO mouse brain sections,mGluR2 [1],less pronounced
same,Cortex WT (TB)/Cortex KO (TB),mGluR2 [1],~2.6
same,Striatum WT (TB)/Striatum KO (TB),mGluR2 [1],~1.9
